Test results taken from PMC8533752, “Characterization of Microtubule Destabilizing Drugs: A Quantitative Cell-Based Assay That Bridges the Gap between Tubulin Based- and Cytotoxicity Assays” (Cancers, 2021).

Tests used:
[1] = test system: cellular microtubules in HeLa cells; experiment: Quantitative immunoluminescent assay of the cellular microtubule content; assay type: cell-based; details: Homo sapiens, 0.5 h, 30 min incubation, mean ± SEM, read-out: IC50, drug concentration able to reduce the amount of cellular microtubules by half
Protocol: 7500 HeLa cells were seeded in 96-well microplates (#655086, Greiner bio One, Courtaboeuf, France) in 100 µL of complete medium per well and then incubated at 37 °C in 5% CO2 for 24 h. Cells were then treated for 30 min at 37 °C with the compounds at concentrations ranging from 1 to 5000 nM (1 microplate per molecule, 1 concentration per column), with 0.1% DMSO used as […] control (6 wells per microplate). After medium aspiration, treated cells were permeabilized for 10 min using 100 µL per well of warmed (37 °C) OPT buffer (80 mM Pipes, 1 mM EGTA, 1 mM MgCl2, 0.5% Triton X-100, and 10% glycerol, pH 6.8). Cells were fixed overnight at room temperature using 100 µL per well of 4% formaldehyde (Sigma Aldrich, #252549, Saint-Quentin-Fallavier, France) in PBS. Cells were washed 3 times in PBS, 0.1% Tween-20 (100 µL per well), then primary anti-alpha-tubulin antibody (clone α3A1 [40], 1:5000 in PBS 2% Bovine Serum Albumin (BSA)) was added for 45 min. Cells were washed twice again and secondary anti-mouse antibody coupled to HRP (1:2000 in PBS 2% BSA, #715-035-150, Jackson Immuno-Research Laboratories, Cambridgeshire, UK) was added for 45 min. Then, cells were washed again with PBS and 100 µL of ECL substrate (#170-5061, Bio-Rad Laboratories inc., USA) were injected in each well using the FLUOstar OPTIMA Microplate Reader (BMG Lab technology, Champagny-sur-Marne, France). The luminescent signal was read immediately after ECL injection.

HeLa cells microtubules = experiment: Immunofluorescence analysis of HeLa cells microtubules; assay type: cell-based, Human; details: 50 nM, 30 min
Protocol: (§1) Cells at a density of 20,000 cells per well were grown for 48 h on glass coverslips placed in a 24-well microplate. When cells reached 70% confluence, the medium was replaced with a fresh one supplemented with DMSO (0.005% or 0.01%) or the test compound at 50 nM or 1000 nM. After 30 min of incubation, cells were permeabilized in warm OPT buffer (80 mmol/L Pipes, […], 0.5% Triton X-100 and 10% Glycerol, pH 6.8) and fixed for 6 min in −20 °C methanol (Carlo ERBA SAS, #414855, Val-de-Reuil, France). After washing and saturation with a specific blocking buffer (3% BSA), 10% Goat serum (Gibco Invitrogen, #16210064, Carlsbad, CA, USA) in PBS), cells were incubated for 45 min at room temperature (RT) with anti-alpha-tubulin antibody (clone α3A1 [40] in blocking buffer). Cells were washed twice again and subsequently incubated with Alexa 488 conjugated anti-mouse antibody (1:500 in blocking buffer, #115-545-166, Jackson immune-research laboratory, Cambridgeshire, UK) and DNA was stained with Hoechst 33342 (1:10,000 in blocking buffer) for 30 min at RT. Coverslips were mounted on glass slides with Moviol 4–88.
(§2) Images were captured with a Zeiss AxioimagerM2 microscope equipped with the acquisition software AxioVision (Marly-le-Roi, France).

RPE1 cell microtubules = experiment: Immunofluorescence analysis of RPE1 cell microtubules; assay type: cell-based, human; details: RPE1 cells, 50 nM, 30 min
Protocol: as §1, §2

HeLa cells = experiment: Cell viability, PrestoBlue assay, HeLa; assay type: cell-based; details: Homo sapiens, 48 h, mean ± SEM, read-out: GI50 (concentration causing 50% cell growth inhibition)
Protocol: (§3) Cell viability was analyzed using the colorimetric PrestoBlue assay (Gibco Invitrogen, #A13262, Carlsbad, CA, USA). Cells were seeded in 96-well microplates (#655077, Greiner, Courtaboeuf, France) at density of 2500 cells per well and allowed to adhere for 24 h before being treated for 48 h with the drugs at indicated concentrations or corresponding concentrations of DMSO as controls, in a final volume of 90 µL. After 48 h of treatment, 10 µL PrestoBlue was added to each well and cells were incubated for another 45 min. The absorbance of each well was measured using a FLUOstar microplate reader (Excitation: 544 nm; Emission: 580 nm, BMG Lab technology, Champagny/Marne, France).

RPE-1 cells = experiment: Cell viability, PrestoBlue assay, RPE-1; assay type: cell-based; details: Homo sapiens, 48 h, mean ± SEM, read-out: GI50 (concentration causing 50% cell growth inhibition)
Protocol: as §3

tubulin = test system: tubulin; design: method as in PMID 32781579; details: cited from earlier work
[2] = test system: microtubular network of interphase cells; design: method as in PMID 32781579; details: cited from earlier work
porcine tubulin = porcine tubulin (Sus scrofa, UniProt P02550+P02554); experiment: biochemical
porcine tubulin, sequence (P02554 whole entry): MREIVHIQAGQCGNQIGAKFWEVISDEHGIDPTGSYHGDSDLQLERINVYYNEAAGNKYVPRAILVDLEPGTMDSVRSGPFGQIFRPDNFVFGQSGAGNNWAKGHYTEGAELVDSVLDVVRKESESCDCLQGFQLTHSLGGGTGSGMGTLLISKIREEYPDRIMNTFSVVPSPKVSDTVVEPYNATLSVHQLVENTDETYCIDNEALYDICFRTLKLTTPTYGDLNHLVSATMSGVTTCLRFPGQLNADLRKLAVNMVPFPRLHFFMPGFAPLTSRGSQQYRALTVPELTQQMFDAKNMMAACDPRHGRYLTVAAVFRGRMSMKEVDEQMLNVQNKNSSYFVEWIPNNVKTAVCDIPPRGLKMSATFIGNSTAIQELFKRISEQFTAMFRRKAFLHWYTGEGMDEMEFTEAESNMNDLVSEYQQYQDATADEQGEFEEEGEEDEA
porcine tubulin, sequence (P02550 whole entry): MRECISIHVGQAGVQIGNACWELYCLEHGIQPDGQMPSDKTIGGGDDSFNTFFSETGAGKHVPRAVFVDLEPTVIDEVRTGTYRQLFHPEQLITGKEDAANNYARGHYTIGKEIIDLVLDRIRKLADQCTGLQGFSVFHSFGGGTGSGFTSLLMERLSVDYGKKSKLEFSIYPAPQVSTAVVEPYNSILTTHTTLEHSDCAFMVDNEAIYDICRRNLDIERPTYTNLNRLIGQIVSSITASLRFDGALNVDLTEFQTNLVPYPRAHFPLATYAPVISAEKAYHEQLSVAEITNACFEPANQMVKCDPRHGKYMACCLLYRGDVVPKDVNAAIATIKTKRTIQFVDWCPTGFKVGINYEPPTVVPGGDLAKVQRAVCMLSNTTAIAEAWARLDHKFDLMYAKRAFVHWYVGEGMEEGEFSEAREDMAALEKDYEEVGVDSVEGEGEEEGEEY
Protocol: Tubulin polymerization kit ((#BK004) was purchased from Cytoskeleton, Inc. (Denver, CO, USA). To study the effect of the compounds on MT assembly, the absorbance-based in vitro tubulin polymerization assay was performed following the manufacturer’s protocol. The reaction mixture containing porcine tubulin (40 µM) in G-PEM buffer (80 mM PIPES pH 6.9, 2.0 mM MgCl2, 0.5 mM EGTA, and 5% glycerol) supplemented with 1.0 mM GTP, in the presence of DMSO (0.18%) or the compound to be tested, was prepared and added to each well of a 96-well plate (half area, #675096, Greiner Bio One, Courtaboeuf, France). Tubulin polymerization was monitored by the increase in absorbance over time, measured by a CLARIOstar^plus Microplate reader from BMG Lab technology (Champagny-sur-Marne, France).

SMILES	IC50 [1] [nM]	state of the MT network by immunofluorescence (HeLa cells microtubules)	effect on cell microtubules by immunofluorescence (RPE1 cell microtubules)	GI50 (HeLa cells) [nM]	GI50 (RPE-1 cells) [nM]	effect on tubulin assembly kinetics (tubulin)	effect on the microtubular network of interphase cells [2]	IC50 (porcine tubulin) [nM]	concentration giving almost complete depolymerization / inhibition of tubulin assembly (porcine tubulin; tubulin 40 µM) [µM]
COc1ccc(/C=C\c2cc(OC)c(OC)c(OC)c2)cc1O [C-A4, combretastatin-A4]	4.5 ± 0.76	only few MTs remain	depolymerized cell microtubules	0.93 ± 0.07	4.16 ± 1.42				
Cc1cc(-n2cccc2)c(C)c2c1[nH]c1ccc(Cl)cc12 [Carba1]						visible depolymerizing effect	no detectable effect		
COc1cc2c(c(OC)c1OC)-c1ccc(OC)c(=O)cc1[C@@H](NC(C)=O)CC2 [colchicine]		a MT network is still present							
COC(=O)Nc1nc2ccc(C(=O)c3cccs3)cc2[nH]1 [nocodazole]	350 ± 76.4	a MT network is still present		49.3 ± 2.6	81.7 ± 4.41			~5000	≥ 40
CC[C@]1(O)C[C@@H]2CN(CCc3c([nH]c4ccccc34)[C@@](C(=O)OC)(c3cc4c(cc3OC)N(C)[C@H]3[C@@](O)(C(=O)OC)[C@H](OC(C)=O)[C@]5(CC)C=CCN6CC[C@]43[C@@H]65)C2)C1 [vinblastine]	4.83 ± 0.17	only few MTs remain	depolymerized cell microtubules	0.73 ± 0.02	0.7 ± 0.77			~1000	
